Here are results for two compounds from patent publication US20110118269A1, “FUSED PYRAZINE COMPOUNDS AS THEIR SALTS, USEFUL FOR THE TREATMENT OF DEGENERATIVE AND INFLAMMATORY DISEASES” (priority 2009, published 2011).

The structures appear in SMILES notation. pIC50: −log10 of the molar value.

For one assay, the system named is MMP1 expression by SFs. Description: MMP assay proof of principle: MMP1 produced by complex trigger activated SFs. The settings on record: 48 hrs, read-out: IC50, reduction of MMP1 expression by SFs. Format: cell-based. The protocol:
A 384-well format ELISA for measurement of MMP1 is developed. Various primary antibodies are tested, as well as various ELISA protocols. The following protocol is developed and validated to measure MMP1 levels in SF supernatant in 384 well plates: white Lumitrac 600 384 well plates (Greiner) are coated with 2 μg/mL anti-MMP1 antibody MAB1346 (Chemicon). The antibody is diluted in buffer 40 (1.21 g Tris base (Sigma), 0.58 g NaCl (Calbiochem) and 5 mL 10% NaN3 (Sigma) in 1 L milliQ water and adjusted to pH 8.5). After overnight incubation at 4° C., plates are washed with PBS (80 g NaCl, 2g KCl (Sigma), 11.5 g Na2HPO4.7H2O and 2 g KH2PO4 in 10 L milliQ; pH 7.4) and blocked with 100 μL/well Casein buffer (2% Casein (VWR International) in PBS). Next day, casein buffer is removed from ELISA plates and replaced by 50 μL/well EC buffer (4 g casein, 2.13 g Na2HPO4 (Sigma), 2 g bovine albumin (Sigma), 0.69 g NaH2PO4.H2O (Sigma), 0.5 g CHAPS (Roche), 23.3 g NaCl, 4 mL 0.5 M EDTA pH 8 (Invitrogen), 5 mL 10% NaN3 in 1 L milliQ and adjusted to pH 7.0). 0.25 mM DTT (Sigma) is added to the thawed samples plates. After removal of the EC buffer, 20 μL of sample is transferred to the ELISA plates. […] Readout is performed on the Luminoscan Ascent Luminometer (Labsystems) with an integration time of 200 msec or with an Envision reader (Perkin Elmer). […]

For assay [1] the following is noted: after 24 months treatment; cited from earlier work.

Usually pIC50 stands for the negative decadic logarithm of the IC50, by convention in mol/L. For `C[C@@H]1C[C@H]2[C@@H]3CCC4=CC(=O)C=C[C@]4(C)[C@@]3(F)[C@@H](O)C[C@]2(C)[C@@]1(O)C(=O)CO` [dexamethasone], the pIC50 in the assay on MMP1 expression by SFs was roughly 9.00.

`CN(Cc1cnc2nc(N)nc(N)c2n1)c1ccc(C(=O)N[C@@H](CCC(=O)O)C(=O)O)cc1` [methotrexate]: the “patients achieving an ACR50 score” value in assay [1] was 30%.
